# Earlier results as cited in patent US20170247647A1, “FLAVOR NANOEMULSIONS AND METHODS OF PREPARING THE SAME” (International Flavors & Fragrances Inc., priority 2014, published 2017).
# Conditions: not given
row,"Water Solubility (g/L, approx.)",Molecule
1,~90 g/L,CCOC(C)=O [ethyl acetate]
2,insoluble,CSC [dimethyl sulfide]
3,~6 g/L,CCCC(=O)OCC [ethyl butyrate]

# More lines, now with the values behind:
row,Molecule,"Water Solubility (g/L, approx.)"
1,CCCC(=O)OC [methyl butyrate],~15 g/L
2,CCOC(=O)CC [ethyl propionate],~14 g/L

# Conditions: commercial surfactant
row,HLB,Molecule
1,15,Tween™ 80
2,14.9,Tween™ 60

row,Molecule,HLB
1,Tween™ 20,16.7
